Results: article PMC5390315 (Scientific Reports, 2017)

Test system: BL6-B16 murine melanoma cells
Test: Mouse allograft tumor model (BL6-B16 melanoma)
Assay type: in vivo
Settings: not given
From the text: Animal experiments were approved by our local animal ethics committee (OPBA, Organismo Preposto al Benessere degli Animali, Università degli Studi di Brescia, Italy) and were executed in accordance with national guidelines and regulations. Procedures involving animals and their care conformed with institutional guidelines that comply with national and international laws and policies (EEC Council Directive 86/609, OJ L 358, 12 December 1987) and with “ARRIVE” guidelines (Animals in Research Reporting In Vivo Experiments). Six week old C57BL/6 mice (Charles River, Calco) were injected subcutaneously into the dorsolateral flank with 2.5x10^5 BL6-B16 murine melanoma cells in 200 μL of PBS. When tumors were palpable, animals were treated intraperitoneally every other day with different doses of test compounds dissolved in 50 μL of DMSO. Tumors were measured in two dimensions, and tumor volume was calculated according to the formula V = (D × d^2)/2, where D and d are the major and minor perpendicular tumor diameters, respectively.

For COc1ccc(/C=C\c2cc(OC)c(OC)c(OC)c2)cc1OP(=O)(O)O [CA-4P, CA-4 disodium phosphate, reference compound], which “reduction in tumor mass” value is on record?
The value was 28.0%.

Test system: panel of five cancer cell lines
Test: not given
Parameters: method as in PMID 23117171
Settings: read-out: IC50 range (Figure 1); cited from earlier work

With CCOc1ccc(-c2sc(C)nc2-c2cc(OC)c(OC)c(OC)c2)cc1 [Compound 3c] as the compound, how does the IC50 read?
The IC50 was 0.043 to 3.3 µM.

Which IC50 does the source give for COc1cc(-c2nc(C)sc2-c2ccc(C)cc2)cc(OC)c1OC [Compound 3a] here?
Its IC50 is 0.52 to 1.9 µM.

Which IC50 does the source give for COc1ccc(-c2sc(C)nc2-c2cc(OC)c(OC)c(OC)c2)cc1 [Compound 3b] here?
Its IC50 is 0.5 to 3.4 µM.

With COc1cc(-c2nc(C)sc2-c2ccc3ccccc3c2)cc(OC)c1OC [Compound 3d] as the compound, how does the IC50 read?
Its IC50 is 0.033 to 0.7 µM.
